Data reported in ChEMBL document CHEMBL3885861, “Open TG-GATES”.

Species: Rattus norvegicus
Assay: Open TG-GATES - Regimen: Single
Format: toxicity, organism-based, Sprague-Dawley
Set-up: regimen Single, gender Male, age 6 weeks
Settings: in vivo, po, 1000 mg/kg, route gavage, dose level High; for APTT / Bas / Eos / Fbg / Hb / Ht / Lym / MCH / MCHC / MCV / Mono / Neu / PT / Plat / RBC / Ret / WBC: tissue Blood; for KIDNEY_L / KIDNEY_R / KIDNEY_TOTAL: tissue Kidney; for LIVER: tissue Liver; for A/G / ALP / ALT / AST / BUN / CRE / Ca / Cl / DBIL / GLC / IP / K / LDH / Na / PL / RALB / TBIL / TC / TG / TP / gamma-GTP: tissue Plasma

SMILES: O=C(OC[C@H]1O[C@@H](OC(=O)c2cc(O)c(O)c(OC(=O)c3cc(O)c(O)c(O)c3)c2)[C@H](OC(=O)c2cc(O)c(O)c(OC(=O)c3cc(O)c(O)c(O)c3)c2)[C@@H](OC(=O)c2cc(O)c(O)c(OC(=O)c3cc(O)c(O)c(O)c3)c2)[C@@H]1OC(=O)c1cc(O)c(O)c(OC(=O)c2cc(O)c(O)c(O)c2)c1)c1cc(O)c(O)c(OC(=O)c2cc(O)c(O)c(O)c2)c1 [TANNIC ACID]
- TERMINAL_BW (3 h): 189.4 g
- APTT (3 h): 17.2 s
- Bas (3 h): 0%
- Eos (3 h): 1%
- Fbg (3 h): 221.2 mg/dL
- Hb (3 h): 13 g/dL
- Ht (3 h): 38.9%
- Lym (3 h): 81.6%
- MCH (3 h): 21.7 pg
- MCHC (3 h): 33.3%
- MCV (3 h): 65.1 fL
- Mono (3 h): 4.8%
- Neu (3 h): 12.8%
- PT (3 h): 11.9 s
- Plat (3 h): 110.6 x10_4/uL
- RBC (3 h): 597.4 x10_4/ul
- Ret (3 h): 10.3%
- WBC (3 h): 104.1 x10_2/uL
- KIDNEY_L (3 h): 0.9 g
- KIDNEY_R (3 h): 0.9 g
- KIDNEY_TOTAL (3 h): 1.8 g
- LIVER (3 h): 8.5 g
- A/G (3 h): 2
- ALP (3 h): 805 IU/L
- ALT (3 h): 39.6 IU/L
- AST (3 h): 69.6 IU/L
- BUN (3 h): 12.2 mg/dL
- CRE (3 h): 0.4 mg/dL
- Ca (3 h): 10.8 mg/dL
- Cl (3 h): 104.6 meq/L
- DBIL (3 h): 0.016 mg/dL
- GLC (3 h): 191.4 mg/dL
- IP (3 h): 10.2 mg/dL
- K (3 h): 4.9 meq/L
- LDH (3 h): 101.8 IU/L
- Na (3 h): 138.2 meq/L
- PL (3 h): 128.2 mg/dL
- RALB (3 h): 3.7 g/dL
- TBIL (3 h): 0.5 mg/dL
- TC (3 h): 72.8 mg/dL
- TG (3 h): 35.8 mg/dL
- TP (3 h): 5.5 g/dL
- gamma-GTP (3 h): 1.2 IU/L
- TERMINAL_BW (6 h): 183.9 g
- APTT (6 h): 16.7 s
- Bas (6 h): 0%
- Eos (6 h): 1%
- Fbg (6 h): 211 mg/dL
- Hb (6 h): 13.5 g/dL
- Ht (6 h): 40.6%
- Lym (6 h): 76.2%
- MCH (6 h): 22 pg
- MCHC (6 h): 33.3%
- MCV (6 h): 66.1 fL
- Mono (6 h): 7%
- Neu (6 h): 16.2%
- PT (6 h): 12 s
- Plat (6 h): 115.1 x10_4/uL
- RBC (6 h): 613.8 x10_4/ul
- Ret (6 h): 9.7%
- WBC (6 h): 101 x10_2/uL
- KIDNEY_L (6 h): 0.9 g
- KIDNEY_R (6 h): 0.9 g
- KIDNEY_TOTAL (6 h): 1.8 g
- LIVER (6 h): 7.5 g
- A/G (6 h): 1.8
- ALP (6 h): 682.8 IU/L
- ALT (6 h): 41.4 IU/L
- AST (6 h): 68.8 IU/L
- BUN (6 h): 11.4 mg/dL
- CRE (6 h): 0.4 mg/dL
- Ca (6 h): 10.6 mg/dL
- Cl (6 h): 105.8 meq/L
- DBIL (6 h): 0.008 mg/dL
- GLC (6 h): 183.4 mg/dL
- IP (6 h): 11 mg/dL
- K (6 h): 5 meq/L
- LDH (6 h): 81.4 IU/L
- Na (6 h): 138.8 meq/L
- PL (6 h): 113.6 mg/dL
- RALB (6 h): 3.4 g/dL
- TBIL (6 h): 0.7 mg/dL
- TC (6 h): 65.2 mg/dL
- TG (6 h): 22.2 mg/dL
- TP (6 h): 5.3 g/dL
- gamma-GTP (6 h): 1.2 IU/L
- TERMINAL_BW (9 h): 185.5 g
- APTT (9 h): 16.9 s
- Bas (9 h): 0%
- Eos (9 h): 1%
- Fbg (9 h): 221 mg/dL
- Hb (9 h): 13.1 g/dL
- Ht (9 h): 39.1%
- Lym (9 h): 73%
- MCH (9 h): 22.3 pg
- MCHC (9 h): 33.6%
- MCV (9 h): 66.5 fL
- Mono (9 h): 8%
- Neu (9 h): 18.4%
- PT (9 h): 12.3 s
- Plat (9 h): 119.4 x10_4/uL
- RBC (9 h): 589.2 x10_4/ul
- Ret (9 h): 9.2%
- WBC (9 h): 87.8 x10_2/uL
- KIDNEY_L (9 h): 0.9 g
- KIDNEY_R (9 h): 0.8 g
- KIDNEY_TOTAL (9 h): 1.7 g
- LIVER (9 h): 7.1 g
- A/G (9 h): 2.3
- ALP (9 h): 772.8 IU/L
- ALT (9 h): 42.4 IU/L
- AST (9 h): 68.8 IU/L
- BUN (9 h): 12.2 mg/dL
- CRE (9 h): 0.4 mg/dL
- Ca (9 h): 10.2 mg/dL
- Cl (9 h): 106.8 meq/L
- DBIL (9 h): 0.08 mg/dL
- GLC (9 h): 193 mg/dL
- IP (9 h): 10.8 mg/dL
- K (9 h): 5 meq/L
- LDH (9 h): 69 IU/L
- Na (9 h): 137 meq/L
- PL (9 h): 113.8 mg/dL
- RALB (9 h): 3.7 g/dL
- TBIL (9 h): 0.9 mg/dL
- TC (9 h): 61.6 mg/dL
- TG (9 h): 16 mg/dL
- TP (9 h): 5.4 g/dL
- gamma-GTP (9 h): 2 IU/L
- TERMINAL_BW (24 h): 198.6 g
- APTT (24 h): 17.8 s
- Bas (24 h): 0%
- Eos (24 h): 1%
- Fbg (24 h): 221.4 mg/dL
- Hb (24 h): 12.6 g/dL
- Ht (24 h): 38.2%
- Lym (24 h): 75.2%
- MCH (24 h): 21.5 pg
- MCHC (24 h): 33.1%
- MCV (24 h): 64.8 fL
- Mono (24 h): 9.2%
- Neu (24 h): 15%
- PT (24 h): 11.8 s
- Plat (24 h): 104.8 x10_4/uL
- RBC (24 h): 588.8 x10_4/ul
- Ret (24 h): 9.3%
- WBC (24 h): 91 x10_2/uL
- KIDNEY_L (24 h): 0.9 g
- KIDNEY_R (24 h): 0.9 g
- KIDNEY_TOTAL (24 h): 1.7 g
- LIVER (24 h): 9.2 g
- A/G (24 h): 1.9
- ALP (24 h): 893.8 IU/L
- ALT (24 h): 36.4 IU/L
- AST (24 h): 62.4 IU/L
- BUN (24 h): 18 mg/dL
- CRE (24 h): 0.5 mg/dL
- Ca (24 h): 10.8 mg/dL
- Cl (24 h): 104.2 meq/L
- DBIL (24 h): 0 mg/dL
- GLC (24 h): 184 mg/dL
- IP (24 h): 7.8 mg/dL
- K (24 h): 4.6 meq/L
- LDH (24 h): 110.8 IU/L
- Na (24 h): 138.6 meq/L
- PL (24 h): 133.4 mg/dL
- RALB (24 h): 3.5 g/dL
- TBIL (24 h): 0.3 mg/dL
- TC (24 h): 72.2 mg/dL
- TG (24 h): 79.6 mg/dL
- TP (24 h): 5.4 g/dL
- gamma-GTP (24 h): 0.8 IU/L
